# In article PMC9898036, “VIP152 is a selective CDK9 inhibitor with pre-clinical in vitro and in vivo efficacy in chronic lymphocytic leukemia” (Leukemia, 2022):
# Like-named read-outs stand apart in the source and are kept apart here.
# How the values were obtained:
# Test in all cases: DiscoverX KINOMEscan kinase profiling (468 assays)
# Format in all cases: binding
# human kinome [1] = target: human kinome (Homo sapiens, UniProt P78368); details: CSNK1G2; 100 nM; read-out: Percent Control
# Outline: (§1)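 VIP152 was run in DMSO, alongside a DMSO control. Readout was qPCR of DNA-tagged kinase still bound to bead-immobilized biotinylated kinase ligands after compound competition.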
# human kinome [2] = target: human kinome (Homo sapiens, UniProt O14965); details: AURKA; 100 nM; read-out: Percent Control
# Outline: as §1
# human kinome [3] = target: human kinome (Homo sapiens, UniProt P24941); details: CDK2; 100 nM; read-out: Percent Control
# Outline: as §1
# human kinome [4] = target: human kinome (Homo sapiens, UniProt P11802); details: 100 nM, read-out: Percent Control
# Outline: as §1
# human kinome [5] = target: human kinome (Homo sapiens, UniProt Q8NEB9); details: kinase VPS34 (Entrez PIK3C3); compound concentration 1000 nM; read-out: Percent Control
# Outline: as §1
# human kinome [6] = target: human kinome (Homo sapiens, UniProt Q9BX84); details: kinase TRPM6 (Entrez TRPM6); compound concentration 1000 nM; read-out: Percent Control
# Outline: as §1
# human kinome [7] = target: human kinome (Homo sapiens, UniProt Q13233); details: MAP3K1; 100 nM; read-out: Percent Control
# Outline: as §1
# human kinome [8] = target: human kinome (Homo sapiens, UniProt Q08345); details: DDR1; 100 nM; read-out: Percent Control
# Outline: as §1
# human kinome [9] = target: human kinome (Homo sapiens, UniProt Q52WX2); details: kinase SBK1 (Entrez SBK1); compound concentration 1000 nM; read-out: Percent Control
# Outline: as §1
# human kinome [10] = target: human kinome (Homo sapiens, UniProt Q99759); details: MAP3K3; 100 nM; read-out: Percent Control
# Outline: as §1
# human kinome [11] = target: human kinome (Homo sapiens, UniProt P00533); details: EGFR; 100 nM; read-out: Percent Control
# Outline: as §1
# human kinome [12] = target: human kinome (Homo sapiens, UniProt Q9H4A3); details: kinase WNK1 (Entrez WNK1); compound concentration 1000 nM; read-out: Percent Control
# Outline: as §1
# human kinome [13] = target: human kinome (Homo sapiens, UniProt P04049); details: read-out: Percent Control
# Outline: as §1
# human kinome [14] = target: human kinome (Homo sapiens, UniProt Q8NI60); details: ADCK3 (Entrez CABC1); 100 nM; read-out: Percent Control
# Outline: as §1
# human kinome [15] = target: human kinome (Homo sapiens, UniProt P00533, T790M); details: EGFR(T790M); 100 nM; read-out: Percent Control
# Outline: as §1
# human kinome [16] = target: human kinome (Homo sapiens, UniProt Q9UBF8); details: read-out: Percent Control
# Outline: as §1
# human kinome [17] = target: human kinome (Homo sapiens, UniProt Q86UX6); details: kinase YANK3 (Entrez STK32C); compound concentration 1000 nM; read-out: Percent Control
# Outline: as §1
# human kinome [18] = target: human kinome (Homo sapiens, UniProt P51813); details: BMX; 100 nM; read-out: Percent Control
# Outline: as §1
# human kinome [19] = target: human kinome (Homo sapiens, UniProt O15264); details: read-out: Percent Control
# Outline: as §1
# human kinome [20] = target: human kinome (Homo sapiens, UniProt P37023); details: ACVRL1; 100 nM; read-out: Percent Control
# Outline: as §1
# human kinome [21] = target: human kinome (Homo sapiens, UniProt Q15208); details: read-out: Percent Control
# Outline: as §1
# human kinome [22] = target: human kinome (Homo sapiens, UniProt Q9H0K1); details: kinase SIK2 (Entrez SIK2); compound concentration 1000 nM; read-out: Percent Control
# Outline: as §1
# human kinome [23] = target: human kinome (Homo sapiens, UniProt P10721, V559D/V654A); details: KIT(V559D,V654A); 100 nM; read-out: Percent Control
# Outline: as §1
# human kinome [24] = target: human kinome (Homo sapiens, UniProt P57058); details: HUNK; 100 nM; read-out: Percent Control
# Outline: as §1
# human kinome [25] = target: human kinome (Homo sapiens, UniProt Q9BRS2); details: kinase RIOK1 (Entrez RIOK1); compound concentration 1000 nM; read-out: Percent Control
# Outline: as §1
# human kinome [26] = target: human kinome (Homo sapiens, UniProt O75116); details: kinase ROCK2 (Entrez ROCK2); compound concentration 1000 nM; read-out: Percent Control
# Outline: as §1
# human kinome [27] = target: human kinome (Homo sapiens, UniProt P20794); details: MAK; 100 nM; read-out: Percent Control
# Outline: as §1
# human kinome [28] = target: human kinome (Homo sapiens, UniProt Q13153); details: read-out: Percent Control
# Outline: as §1
# human kinome [29] = target: human kinome (Homo sapiens, UniProt Q13177); details: read-out: Percent Control
# Outline: as §1
# Sequence of human kinome (Homo sapiens, UniProt P11802) (P11802 whole entry): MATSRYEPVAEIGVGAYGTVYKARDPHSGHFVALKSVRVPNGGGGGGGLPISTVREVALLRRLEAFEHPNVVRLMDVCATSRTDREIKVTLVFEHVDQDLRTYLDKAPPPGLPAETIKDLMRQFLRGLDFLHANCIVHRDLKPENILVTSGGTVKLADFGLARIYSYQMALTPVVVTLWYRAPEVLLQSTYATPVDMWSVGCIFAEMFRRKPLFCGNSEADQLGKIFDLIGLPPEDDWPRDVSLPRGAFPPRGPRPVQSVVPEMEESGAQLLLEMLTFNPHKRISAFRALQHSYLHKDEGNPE
# Sequence of human kinome (Homo sapiens, UniProt P04049) (P04049 whole entry): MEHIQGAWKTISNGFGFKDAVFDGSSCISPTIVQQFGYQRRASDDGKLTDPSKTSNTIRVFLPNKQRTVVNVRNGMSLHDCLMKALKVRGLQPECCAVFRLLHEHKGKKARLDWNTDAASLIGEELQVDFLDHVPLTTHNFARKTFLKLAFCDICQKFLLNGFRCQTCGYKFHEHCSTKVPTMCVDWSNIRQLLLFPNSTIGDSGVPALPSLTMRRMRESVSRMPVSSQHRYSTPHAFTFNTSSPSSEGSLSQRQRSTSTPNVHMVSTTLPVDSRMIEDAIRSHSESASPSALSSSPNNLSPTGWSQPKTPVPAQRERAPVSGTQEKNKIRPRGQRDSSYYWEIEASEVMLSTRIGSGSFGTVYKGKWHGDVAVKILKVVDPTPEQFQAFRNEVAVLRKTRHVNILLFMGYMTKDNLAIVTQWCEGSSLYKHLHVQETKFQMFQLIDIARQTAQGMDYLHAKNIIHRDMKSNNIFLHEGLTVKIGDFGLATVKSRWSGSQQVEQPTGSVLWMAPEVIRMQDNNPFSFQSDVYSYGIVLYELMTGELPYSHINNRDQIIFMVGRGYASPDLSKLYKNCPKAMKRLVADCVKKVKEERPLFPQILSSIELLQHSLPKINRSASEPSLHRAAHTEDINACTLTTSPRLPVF
# Sequence of human kinome (Homo sapiens, UniProt Q13153) (Q13153 whole entry): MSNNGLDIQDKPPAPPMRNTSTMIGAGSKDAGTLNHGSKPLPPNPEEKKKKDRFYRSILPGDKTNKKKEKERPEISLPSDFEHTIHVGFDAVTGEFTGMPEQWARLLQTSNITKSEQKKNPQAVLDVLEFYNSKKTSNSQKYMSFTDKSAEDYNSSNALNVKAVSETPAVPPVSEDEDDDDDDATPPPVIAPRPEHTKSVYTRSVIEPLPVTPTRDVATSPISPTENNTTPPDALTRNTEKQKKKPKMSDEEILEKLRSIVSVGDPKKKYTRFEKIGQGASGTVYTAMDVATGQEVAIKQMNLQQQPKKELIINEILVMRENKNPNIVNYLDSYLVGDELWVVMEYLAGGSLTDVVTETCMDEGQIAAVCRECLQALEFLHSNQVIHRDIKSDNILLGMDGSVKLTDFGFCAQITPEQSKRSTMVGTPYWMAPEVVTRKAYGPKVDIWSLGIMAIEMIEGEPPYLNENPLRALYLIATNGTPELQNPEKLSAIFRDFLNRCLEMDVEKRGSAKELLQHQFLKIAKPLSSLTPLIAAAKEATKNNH
# Sequence of human kinome (Homo sapiens, UniProt Q15208) (Q15208 whole entry): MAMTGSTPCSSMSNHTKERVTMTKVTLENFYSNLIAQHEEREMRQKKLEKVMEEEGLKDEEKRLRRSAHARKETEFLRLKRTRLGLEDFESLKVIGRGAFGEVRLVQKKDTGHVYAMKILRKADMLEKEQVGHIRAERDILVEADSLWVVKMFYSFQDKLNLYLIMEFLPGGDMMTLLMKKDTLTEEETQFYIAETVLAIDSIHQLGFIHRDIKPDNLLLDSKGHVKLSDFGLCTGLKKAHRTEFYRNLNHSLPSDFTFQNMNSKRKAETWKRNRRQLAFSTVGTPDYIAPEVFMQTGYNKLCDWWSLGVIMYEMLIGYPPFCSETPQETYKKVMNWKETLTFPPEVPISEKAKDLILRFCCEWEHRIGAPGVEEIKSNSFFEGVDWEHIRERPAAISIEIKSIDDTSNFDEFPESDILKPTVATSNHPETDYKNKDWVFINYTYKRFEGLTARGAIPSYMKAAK
# Sequence of human kinome (Homo sapiens, UniProt O15264) (O15264 whole entry): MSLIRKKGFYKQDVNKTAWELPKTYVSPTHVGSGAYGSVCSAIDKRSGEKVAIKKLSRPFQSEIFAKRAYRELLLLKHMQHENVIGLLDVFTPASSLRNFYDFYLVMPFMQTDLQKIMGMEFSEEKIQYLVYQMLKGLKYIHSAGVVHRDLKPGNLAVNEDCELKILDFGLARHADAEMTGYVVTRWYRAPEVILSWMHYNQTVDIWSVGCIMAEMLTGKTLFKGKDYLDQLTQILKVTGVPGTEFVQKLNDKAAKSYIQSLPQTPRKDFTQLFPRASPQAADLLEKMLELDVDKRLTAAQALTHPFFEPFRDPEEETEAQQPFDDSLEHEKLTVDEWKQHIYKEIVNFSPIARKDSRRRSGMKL
# Sequence of human kinome (Homo sapiens, UniProt Q13177) (Q13177 whole entry): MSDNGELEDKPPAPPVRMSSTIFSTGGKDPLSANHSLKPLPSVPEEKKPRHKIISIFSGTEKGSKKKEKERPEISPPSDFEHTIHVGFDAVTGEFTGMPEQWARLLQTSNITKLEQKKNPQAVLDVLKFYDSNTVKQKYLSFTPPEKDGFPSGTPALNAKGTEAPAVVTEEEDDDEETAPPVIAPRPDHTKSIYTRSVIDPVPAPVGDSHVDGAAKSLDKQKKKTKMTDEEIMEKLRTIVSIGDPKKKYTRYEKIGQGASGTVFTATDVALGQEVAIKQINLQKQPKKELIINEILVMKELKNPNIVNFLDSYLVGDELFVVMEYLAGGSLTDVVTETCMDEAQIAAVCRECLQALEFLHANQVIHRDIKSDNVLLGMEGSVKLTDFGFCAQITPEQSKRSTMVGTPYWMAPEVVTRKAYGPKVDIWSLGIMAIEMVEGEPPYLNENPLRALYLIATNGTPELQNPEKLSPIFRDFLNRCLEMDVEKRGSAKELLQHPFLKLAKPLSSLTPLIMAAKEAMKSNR
# Sequence of human kinome (Homo sapiens, UniProt Q9UBF8) (Q9UBF8 whole entry): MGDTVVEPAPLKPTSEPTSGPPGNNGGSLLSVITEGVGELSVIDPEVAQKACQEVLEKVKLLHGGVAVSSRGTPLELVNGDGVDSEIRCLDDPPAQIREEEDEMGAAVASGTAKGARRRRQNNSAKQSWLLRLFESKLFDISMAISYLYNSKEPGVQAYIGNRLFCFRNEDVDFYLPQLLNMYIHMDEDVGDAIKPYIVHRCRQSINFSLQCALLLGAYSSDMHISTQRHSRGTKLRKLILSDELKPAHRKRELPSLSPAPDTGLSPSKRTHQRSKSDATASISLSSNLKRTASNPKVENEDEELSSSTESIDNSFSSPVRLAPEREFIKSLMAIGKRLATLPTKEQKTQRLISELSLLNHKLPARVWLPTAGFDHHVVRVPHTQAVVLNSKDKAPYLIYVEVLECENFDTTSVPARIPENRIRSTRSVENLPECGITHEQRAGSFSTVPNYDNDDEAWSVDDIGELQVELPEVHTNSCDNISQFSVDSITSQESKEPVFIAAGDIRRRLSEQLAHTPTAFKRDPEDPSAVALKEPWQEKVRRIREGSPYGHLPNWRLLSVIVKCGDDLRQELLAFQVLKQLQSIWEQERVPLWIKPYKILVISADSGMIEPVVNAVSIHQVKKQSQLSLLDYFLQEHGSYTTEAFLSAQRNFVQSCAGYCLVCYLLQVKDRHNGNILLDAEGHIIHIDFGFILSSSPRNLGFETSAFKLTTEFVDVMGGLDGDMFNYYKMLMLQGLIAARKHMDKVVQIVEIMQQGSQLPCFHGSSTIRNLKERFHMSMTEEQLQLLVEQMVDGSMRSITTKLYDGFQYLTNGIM
# Sequence of human kinome (Homo sapiens, UniProt P57058) (P57058 whole entry): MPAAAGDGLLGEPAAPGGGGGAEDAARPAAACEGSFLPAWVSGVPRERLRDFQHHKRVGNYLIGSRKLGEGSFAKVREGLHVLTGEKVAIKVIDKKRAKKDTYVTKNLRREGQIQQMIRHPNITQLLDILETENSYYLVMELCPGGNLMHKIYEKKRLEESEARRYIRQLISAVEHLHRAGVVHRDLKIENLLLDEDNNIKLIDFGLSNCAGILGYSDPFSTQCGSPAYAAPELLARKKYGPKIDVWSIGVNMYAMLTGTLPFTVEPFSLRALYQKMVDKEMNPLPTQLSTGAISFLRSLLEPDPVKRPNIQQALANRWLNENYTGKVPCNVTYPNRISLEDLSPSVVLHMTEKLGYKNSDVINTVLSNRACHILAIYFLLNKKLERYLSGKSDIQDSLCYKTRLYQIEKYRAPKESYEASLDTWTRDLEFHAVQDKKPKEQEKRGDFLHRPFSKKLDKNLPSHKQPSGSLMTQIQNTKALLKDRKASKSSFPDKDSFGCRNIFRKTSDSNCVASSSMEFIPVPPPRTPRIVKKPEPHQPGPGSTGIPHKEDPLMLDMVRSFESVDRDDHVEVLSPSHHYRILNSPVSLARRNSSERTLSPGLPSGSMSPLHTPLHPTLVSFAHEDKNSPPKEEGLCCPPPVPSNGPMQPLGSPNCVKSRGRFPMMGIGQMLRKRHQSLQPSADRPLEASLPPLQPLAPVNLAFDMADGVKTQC
# Sequence of human kinome (Homo sapiens, UniProt Q8NI60) (Q8NI60 163-647): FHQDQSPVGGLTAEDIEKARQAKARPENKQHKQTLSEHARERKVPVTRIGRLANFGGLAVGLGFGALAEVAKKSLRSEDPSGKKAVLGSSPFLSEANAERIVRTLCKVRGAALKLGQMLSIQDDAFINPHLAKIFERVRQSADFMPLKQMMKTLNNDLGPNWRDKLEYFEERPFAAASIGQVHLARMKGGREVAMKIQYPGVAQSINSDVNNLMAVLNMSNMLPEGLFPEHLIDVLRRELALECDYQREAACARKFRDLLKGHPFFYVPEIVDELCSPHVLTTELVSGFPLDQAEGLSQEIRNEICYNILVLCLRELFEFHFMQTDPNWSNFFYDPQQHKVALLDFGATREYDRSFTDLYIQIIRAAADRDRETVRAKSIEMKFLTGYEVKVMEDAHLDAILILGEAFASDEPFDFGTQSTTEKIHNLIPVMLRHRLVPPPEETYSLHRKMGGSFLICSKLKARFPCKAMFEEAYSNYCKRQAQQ
smiles,measurement,setting,value
COc1cc(F)ccc1-c1cc(Nc2cc(CS(C)(=N)=O)ccn2)ncc1F (stereo not shown) [VIP152],remaining binding at 0.1 µM,human kinome [1],100%
same,remaining binding at 0.1 µM,human kinome [2],100%
same,remaining binding at 0.1 µM,human kinome [3],100%
same,remaining binding at 0.1 µM,human kinome [4]; CDK4-cyclinD1,85%
same,remaining binding at 0.1 µM,human kinome [4]; CDK4-cyclinD3,92%
same,remaining binding at 0.1 µM,human kinome [4]; CDK4,100%
same,remaining binding at 1 µM,human kinome [5],100%
same,remaining binding at 1 µM,human kinome [6],96%
same,remaining binding at 0.1 µM,human kinome [7],100%
same,remaining binding at 0.1 µM,human kinome [8],99%
same,remaining binding at 1 µM,human kinome [9],100%
same,remaining binding at 0.1 µM,human kinome [10],100%
same,remaining binding at 0.1 µM,human kinome [11],100%
same,remaining binding at 1 µM,human kinome [12],90%
same,remaining binding at 0.1 µM,"human kinome [13]; RAF1, 100 nM",100%
same,remaining binding at 1 µM,"human kinome [13]; kinase RAF1 (Entrez RAF1), compound concentration 1000 nM",96%
same,remaining binding at 0.1 µM,human kinome [14],100%
same,remaining binding at 0.1 µM,human kinome [15],100%
same,remaining binding at 0.1 µM,"human kinome [16]; PIK4CB (Entrez PI4KB), 100 nM",100%
same,remaining binding at 1 µM,"human kinome [16]; kinase PIK4CB (Entrez PI4KB), compound concentration 1000 nM",95%
same,remaining binding at 1 µM,human kinome [17],95%
same,remaining binding at 0.1 µM,human kinome [18],100%
same,remaining binding at 1 µM,"human kinome [19]; kinase p38-delta (Entrez MAPK13), compound concentration 1000 nM",98%
same,remaining binding at 0.1 µM,"human kinome [19]; p38-delta (Entrez MAPK13), 100 nM",100%
same,remaining binding at 0.1 µM,human kinome [20],77%
same,remaining binding at 0.1 µM,"human kinome [21]; NDR1 (Entrez STK38), 100 nM",100%
same,remaining binding at 1 µM,"human kinome [21]; kinase NDR1 (Entrez STK38), compound concentration 1000 nM",93%
same,remaining binding at 1 µM,human kinome [22],79%
same,remaining binding at 0.1 µM,human kinome [23],100%
same,remaining binding at 0.1 µM,human kinome [24],88%
same,remaining binding at 1 µM,human kinome [25],79%
same,remaining binding at 1 µM,human kinome [26],87%
same,remaining binding at 0.1 µM,human kinome [27],100%
same,remaining binding at 0.1 µM,"human kinome [28]; PAK1, 100 nM",100%
same,remaining binding at 1 µM,"human kinome [28]; kinase PAK1 (Entrez PAK1), compound concentration 1000 nM",100%
same,remaining binding at 0.1 µM,"human kinome [29]; PAK2, 100 nM",81%
same,remaining binding at 1 µM,"human kinome [29]; kinase PAK2 (Entrez PAK2), compound concentration 1000 nM",100%
